Experimental data from article PMC5224920, “Assessing the mechanism and therapeutic potential of modulators of the human Mediator complex-associated protein kinases” (eLife, 2016).

System: 12 single or co-culture in vitro tissue models of primary cells
Assay: Culture/co-culture cell model panel, extracellular biomarkers (DiscoveRx); as to CCL2/MCP-1: reference of the scale not given here; as to CXCL8/IL-8: reference of the scale not given here; as to CXCL9/MIG: reference of the scale not given here; as to IL-1alpha: reference of the scale not given here; as to PBMC Cytotoxicity: reference of the scale not given here; as to SRB: reference of the scale not given here
Type: cell-based, human

Work on `CN1c2ccc(-c3cncc(Cl)c3N3CCC4(CC3)CNC(=O)O4)cc2CS1(=O)=O` [CMPD2] yielded an SRB (BENo, 1.00E3 nM) of 0.003, a tPA (BENo, 1.00E3 nM) of 0.049 and a uPA (BENo, 1.00E3 nM) of 0.021. The CCL26/Eotaxin-3 (BENo, 1.00E4 nM) was 0.048, the CD54/ICAM-1 (BENo, 1.00E4 nM) was -0.033 and the CD87/uPAR (BENo, 1.00E4 nM) was 0.057. The CXCL8/IL-8 (BENo, 1.00E4 nM) was 0.016, the CXCL9/MIG (BENo, 1.00E4 nM) was 0.075 and the CXCL10/IP-10 (BENo, 1.00E4 nM) was 0.073. The CXCL11/I-TAC (BENo, 1.00E4 nM) was 0.025, the EGFR (BENo, 1.00E4 nM) was 0.043 and the HLA-DR (BENo, 1.00E4 nM) was 0.040. For the same molecule, the IL-1alpha (BENo, 1.00E4 nM) was -0.020, the “Keratin 8/18” value (BENo, 1.00E4 nM) was 0.022 and the MMP-1 (BENo, 1.00E4 nM) was 0.039. The MMP-9 (BENo, 1.00E4 nM) was 0.031, the PAI-I (BENo, 1.00E4 nM) was -0.100 and the SRB (BENo, 1.00E4 nM) was 0.001. The tPA (BENo, 1.00E4 nM) was 0.040, the uPA (BENo, 1.00E4 nM) was -0.00475 and the CCL2/MCP-1 (BF4T, 1.00E0 nM) was 0.022. It also gave a CCL26/Eotaxin-3 (BF4T, 1.00E0 nM) of -0.032, a CD54/ICAM-1 (BF4T, 1.00E0 nM) of -0.00361 and a CD90 (BF4T, 1.00E0 nM) of -0.036. It also gave a CD106/VCAM-1 (BF4T, 1.00E0 nM) of 0.043, a CXCL8/IL-8 (BF4T, 1.00E0 nM) of 0.040 and an IL-1alpha (BF4T, 1.00E0 nM) of 0.007. The “Keratin 8/18” value (BF4T, 1.00E0 nM) was -0.001, the MMP-1 (BF4T, 1.00E0 nM) was 0.030 and the MMP-3 (BF4T, 1.00E0 nM) was 0.082. For the same molecule, the MMP-9 (BF4T, 1.00E0 nM) was 0.039, the PAI-I (BF4T, 1.00E0 nM) was -0.008 and the SRB (BF4T, 1.00E0 nM) was 0.004. It also gave a tPA (BF4T, 1.00E0 nM) of 0.051, a uPA (BF4T, 1.00E0 nM) of 0.046 and a CCL2/MCP-1 (BF4T, 1.00E1 nM) of -0.011. It also gave a CCL26/Eotaxin-3 (BF4T, 1.00E1 nM) of -0.107, a CD54/ICAM-1 (BF4T, 1.00E1 nM) of -0.027 and a CD90 (BF4T, 1.00E1 nM) of -0.009. It also gave a CD106/VCAM-1 (BF4T, 1.00E1 nM) of 0.033, a CXCL8/IL-8 (BF4T, 1.00E1 nM) of 0.048 and an IL-1alpha (BF4T, 1.00E1 nM) of 0.020. For the same molecule, the “Keratin 8/18” value (BF4T, 1.00E1 nM) was -0.009, the MMP-1 (BF4T, 1.00E1 nM) was 0.022 and the MMP-3 (BF4T, 1.00E1 nM) was 0.075. It also gave an MMP-9 (BF4T, 1.00E1 nM) of 0.012, a PAI-I (BF4T, 1.00E1 nM) of 0.023 and an SRB (BF4T, 1.00E1 nM) of -0.00108. It also gave a tPA (BF4T, 1.00E1 nM) of 0.047, a uPA (BF4T, 1.00E1 nM) of 0.034 and a CCL2/MCP-1 (BF4T, 1.00E2 nM) of -0.025. For the same molecule, the CCL26/Eotaxin-3 (BF4T, 1.00E2 nM) was -0.086, the CD54/ICAM-1 (BF4T, 1.00E2 nM) was -0.020 and the CD90 (BF4T, 1.00E2 nM) was 0.002. It also gave a CD106/VCAM-1 (BF4T, 1.00E2 nM) of 0.042, a CXCL8/IL-8 (BF4T, 1.00E2 nM) of 0.050 and an IL-1alpha (BF4T, 1.00E2 nM) of 0.00136. For the same molecule, the “Keratin 8/18” value (BF4T, 1.00E2 nM) was 0.009, the MMP-1 (BF4T, 1.00E2 nM) was 0.008 and the MMP-3 (BF4T, 1.00E2 nM) was 0.053. The MMP-9 (BF4T, 1.00E2 nM) was 0.008, the PAI-I (BF4T, 1.00E2 nM) was 0.039 and the SRB (BF4T, 1.00E2 nM) was 4.82e-5. The tPA (BF4T, 1.00E2 nM) was 0.063, the uPA (BF4T, 1.00E2 nM) was 0.022 and the CCL2/MCP-1 (BF4T, 1.00E3 nM) was -0.016. It also gave a CCL26/Eotaxin-3 (BF4T, 1.00E3 nM) of -0.102, a CD54/ICAM-1 (BF4T, 1.00E3 nM) of -0.022 and a CD90 (BF4T, 1.00E3 nM) of -0.000476. The CD106/VCAM-1 (BF4T, 1.00E3 nM) was 0.044, the CXCL8/IL-8 (BF4T, 1.00E3 nM) was 0.047 and the IL-1alpha (BF4T, 1.00E3 nM) was -0.00456. The “Keratin 8/18” value (BF4T, 1.00E3 nM) was 0.007, the MMP-1 (BF4T, 1.00E3 nM) was 0.015 and the MMP-3 (BF4T, 1.00E3 nM) was 0.034. The MMP-9 (BF4T, 1.00E3 nM) was 0.024, the PAI-I (BF4T, 1.00E3 nM) was 0.026 and the SRB (BF4T, 1.00E3 nM) was 0.00277. The tPA (BF4T, 1.00E3 nM) was 0.071, the uPA (BF4T, 1.00E3 nM) was 0.023 and the CCL2/MCP-1 (BF4T, 1.00E4 nM) was -0.034. For the same molecule, the CCL26/Eotaxin-3 (BF4T, 1.00E4 nM) was -0.125, the CD54/ICAM-1 (BF4T, 1.00E4 nM) was -0.043 and the CD90 (BF4T, 1.00E4 nM) was 0.000654. It also gave a CD106/VCAM-1 (BF4T, 1.00E4 nM) of 0.043, a CXCL8/IL-8 (BF4T, 1.00E4 nM) of 0.030 and an IL-1alpha (BF4T, 1.00E4 nM) of -0.00143. The “Keratin 8/18” value (BF4T, 1.00E4 nM) was -0.023, the MMP-1 (BF4T, 1.00E4 nM) was 0.010 and the MMP-3 (BF4T, 1.00E4 nM) was 0.027. It also gave an MMP-9 (BF4T, 1.00E4 nM) of -0.007, a PAI-I (BF4T, 1.00E4 nM) of -0.013 and an SRB (BF4T, 1.00E4 nM) of 0.000752. For the same molecule, the tPA (BF4T, 1.00E4 nM) was 0.037, the uPA (BF4T, 1.00E4 nM) was 0.017 and the “B cell Proliferation” value (BT, 1.00E0 nM) was -0.010. For the same molecule, the “PBMC Cytotoxicity” value (BT, 1.00E0 nM) was 0.032.
